Measured values taken from patent US12583818B2 (DAEGU-GYEONGBUK MEDICAL INNOVATION FOUNDATION, priority 2020, dated 2026).
Like-named read-outs stand apart in the source and are kept apart here.

What was measured:
Pin1 = molecular target: T1, Pin1 (Homo sapiens, UniProt Q13526); test: Evaluation of Pin1 enzyme inhibitory activity (Sensolyte Green Pin1 assay kit); format: biochemical
T1 construct: purchased Anaspec
Outline: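 Pin1 activity was measured with a fluorogenic kit assay (Sensolyte Green) using substrate prepared at 1 μM and protein at 50 μg/ml, both pre-mix concentrations. Compound working solutions were 100, 10, 1 or 0.1 μM, and reactions ran 2 h at room temperature in the dark, read at 490/520 nm. Inhibition was graded A–D by concentration.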

[1] = test system: A2780-SP cells (ovarian cancer stem cells); test: Sphere cell viability of A2780-SP cells (Cell-titer Glo); format: cell-based
Outline: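 A2780-SP ovarian cancer stem cells grown as spheres in ultra-low-attachment wells (1,500 cells/well) in neurobasal stem-cell medium with bFGF, EGF, B27. Compound added the day after plating, re-dosed on day 4, 8-day culture total; viability by CellTiter-Glo luminescence.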

[2] = test system: MCF7-SP cells (breast cancer stem cells); test: Sphere cell viability of MCF7-SP cells (Cell-titer Glo); format: cell-based
Method: (§1) In order to confirm the inhibitory effect of the compound represented by formula 1 according to the present invention on the growth of MCF7, MCF7-SP, A2780 or A2780-SP cells, the following experiment was performed, and the results are shown in Tables 4 and 5 below.
On the other hand, MCF7-SP cells (breast cancer stem cells) were plated in an Ultra-Low Attachment round bottom 96-well plate (corning) at the density of 1,500 viable cells per well, and cultured in cancer stem cell medium. The cancer stem cell medium is composed of the neurobasal medium supplemented with 20 ng/ml of bFGF, 10 ng/ml of EGF, 2.5 […], HEPES, Glutamax and B27.
On the next day of culture, the cells were treated with the compound of Example 71, 76, 80, 84, 92, 99, 100 or 119, followed by culture for 8 days. The medium containing the compound was added thereto once again on the 4th day. Sphere cell viability was evaluated by Cell-titer Glo (Promega, WC, USA), and luciferase activity was detected using a Tecan plate reader (Biocompare, USA).

[3] = test system: A2780 cells (ovarian cancer cells); test: Cell viability of A2780 cells (Cell-titer Glo); format: cell-based; settings: Homo sapiens
Outline: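 A2780 ovarian cancer cells seeded at 3000 viable cells/well in RPMI-1640 with 10% FBS, dosed the next day and grown 3 days. Viability measured by Cell-titer Glo luminescence.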

[4] = test system: MDA-MB 231 triple negative breast cancer cell line; test: MDA-MB 231 protein expression inhibition (Western blotting, cycline D1 vs Vinculin); format: cell-based; settings: Homo sapiens, compound 10 μM, 72 hours, cycline D1 Western blot, read-out: MBA-MB-231 (amount of the protein compared to the DMSO-treated control group)
Method: In order to confirm the ability of the compound represented by formula 1 according to the present invention to inhibit the protein expression of MDA-MB 231 triple negative breast cancer cell line, the following experiment was performed, and the results are shown in Table 3 below.
MDA-MB-231 cells were cultured in a 5% CO2 incubator at 37° C. using RPMI medium supplemented with 10% FBS and 1% penicillin/streptomycin.
The cells were washed with PBS once a day, and then replaced with a new medium. The cells grown at the density of at least 90% 1 day before the experiment were detached using trypsin/EDTA, and then plated at the density of 100,000 per well in a 6-well plate.
On the next day of culture, the compound prepared in each example was treated at a concentration of 10 μM, and DMSO was treated at a concentration of 0.1% of the total as the control, followed by incubation for 72 hours. After 72 hours, the cells were washed twice with PBS, collected by scraping, and centrifuged at 13,000 rpm for 3 minutes to remove all the supernatant and only cells were taken.
RIPA buffer (containing 1× protease inhibitor and phosphatase inhibitor) was added to the prepared cells (80 μl/well), and the plate was shaken once every 5 minutes to disrupt the cells for a total of 15 minutes. The disrupted cells were centrifuged at 13,000 rpm for 15 minutes to collect only the supernatant protein. The obtained protein was quantified using a BCA protein quantification kit (Pierece, MA, USA), and a total of 10 μg of the protein was used for Western blotting.
The protein sample was isolated by 10% SDS-PAGE, and transferred to a PVDF membrane. Anti-human cycline D1 antibody (Cell signal) and anti-Vinculin antibody were bound to the protein sample, and the expression of the protein was measured by using an ECL reagent and LAS4000 equipment. The measurement results were quantified and generalized using ImageJ. The results are shown in Table 3 below by dividing the grades A to D according to the amount of the protein compared to the DMSO-treated control group.

[5] = test system: MCF7 cells (breast cancer cells); test: Cell viability of MCF7 cells (Cell-titer Glo); format: cell-based; settings: Homo sapiens
Method: as §1
MCF7 cells (breast cancer cells) were plated in a 96-well plate at the density of 3000 viable cells per well, and cultured in DMEM/High glucose medium supplemented with 10% FBS and 1% penicillin/streptomycin.
On the next day of culture, the cells were treated with the compound of Example 71, 76, 80, 84, 92, 99, 100 or 119, followed by culture for 3 days. Cell viability was evaluated by Cell-titer Glo (Promega, WC, USA), and luciferase activity was detected using a Tecan plate reader (Biocompare, USA).

[6] = Table 2, read-out: concentration at which Pin1 inhibitory activity was exhibited
[7] = concentration at which the Pin1 enzyme activity is inhibited, 2 hours at room temperature, fluorescence 490 nm/520 nm, read-out: Pin 1 inhibition
[8] = 192 h, sphere cell viability, culture for 8 days, read-out: A2780-SP
[9] = Table 5, read-out: the concentration (second list of b710, cell line not named; matches A2780-SP column)
[10] = 192 h, sphere cell viability, culture for 8 days, read-out: MCF7-SP
[11] = text summary of Table 4, read-out: MCF7-SP cell concentration
[12] = 72 h, cell viability, culture for 3 days, read-out: A2780
[13] = 72 h, cell viability, culture for 3 days, read-out: MCF7
[14] = MCF7, text summary of Table 4, read-out: MCF7 cell concentration
[15] = A2780, Table 5, read-out: A2780 cell concentration

T1 sequence (Q13526 whole entry): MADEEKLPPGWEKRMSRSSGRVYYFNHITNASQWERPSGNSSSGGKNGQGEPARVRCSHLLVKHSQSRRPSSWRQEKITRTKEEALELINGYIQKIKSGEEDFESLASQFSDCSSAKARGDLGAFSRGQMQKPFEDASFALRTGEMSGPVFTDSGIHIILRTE

SMILES	IC50 (Pin1; [6])	IC50 (Pin1; [7])	IC50 [1, 8]	IC50 [1, 9]	IC50 [2, 10]	IC50 [2, 11]	IC50 [3, 12]	activity at 10 µM [4]	IC50 [5, 13]	IC50 [5, 14]	IC50 [3, 15]
O=S(=O)(NCCCc1c[nH]c2ccc(Cl)cc12)c1ccc(CCCCN2CCNCC2)cc1 [Example 91, N-(3-(5-chloro-1H-indol-3-yl)propyl)-4-(4-(piperazin-1-yl)butyl)benzenesulfonamide]	< 1000 nM	< 1000 nM	< 1000 nM	< 1000 nM	1000 to 10000 nM	< 10000 nM	> 10000 nM	0 to 35%	1000 to 10000 nM	< 10000 nM	–
CN1CCN(CCCNc2ccc(S(=O)(=O)NCCCc3c[nH]c4ccc(Cl)cc34)cc2)CC1 [Example 98, N-(3-(5-chloro-1H-indole-3-yl)propyl)-4-((3-(4-methylpiperazine-1-yl)propyl)amino)benzenesulfonamide]	< 1000 nM	< 1000 nM	1000 to 10000 nM	–	> 10000 nM	–	1000 to 10000 nM	0 to 35%	> 10000 nM	–	< 10000 nM
O=S(=O)(NCCCc1c[nH]c2ccc(Cl)cc12)c1ccc(CCCCC2CCNCC2)cc1 [Example 99, N-(3-(5-chloro-1H-indole-3-yl)propyl)-4-(4-(piperidine-4-yl)butyl)benzenesulfonamide]	< 1000 nM	< 1000 nM	< 1000 nM	< 1000 nM	1000 to 10000 nM	< 10000 nM	1000 to 10000 nM	0 to 35%	1000 to 10000 nM	< 10000 nM	< 10000 nM
CN1CCN(c2cccc(Oc3ccc(S(=O)(=O)NCCCc4c[nH]c5ccc(Cl)cc45)cc3)c2)CC1 [Example 118, N-(3-(5-chloro-1H-indole-3-yl)propyl)-4-(3-(4-methylpiperazine-1-yl)phenoxy)benzenesulfonamide]	< 1000 nM	< 1000 nM	< 1000 nM	< 1000 nM	1000 to 10000 nM	< 10000 nM	> 10000 nM	50 to 70%	1000 to 10000 nM	< 10000 nM	–
